# Tested on: AMPA receptor
# Assay: Suppressing action to calcium influx into nerve cells induced by AMPA
# Type: cell-based
# Settings: Fura2-AM, stimulation with 2 μM AMPA, primary culture of rat embryo cerebral cortex nerve cells, 1 μM MK-801
# From the text: Suppressing Action to Calcium Influx into Nerve Cells Induced by AMPA
# The suppressing action of the compounds of the present invention to calcium influx into nerve cells induced by AMPA was investigated using the primary culture system of nerve cells of cerebral cortex of embryo of rat.
# Cerebral cortex was cut out from the brain of rat of gestational 18 days and treated with trypsin and DNase to disperse the cells. The cells were flown by MEM containing 10% of serum, sown in a culture bottle and astrocytes were proliferated. The astrocytes were re-dispersed by trypsin and sown in a 96-well plate. After incubation for one week, it was confirmed that the astrocytes covered all over the bottom and then the nerve cells of cerebral cortex which was dispersed by the above method were sown thereupon. After incubation for 24 hours, the medium was changed, the incubation was carried out for one week and, after that, the medium was changed to that containing 1 μM of MK-801. Nerve cells which were incubated for not shorter than 8 to 10 days were used.
# Calcium influx into the cells was measured using Fura2-AM which was a calcium-sensitive fluorescent dye. It was treated in a medium containing Fura2-AM for 1 hour, incorporated into the cells, exchanged to a Tyrode solution containing 1 μM MK-801 and stimulation was carried out using 2 μM AMPA. Change in the amount of calcium flown into the cells were measured as the change in the fluorescent intensity at the exciting wave length of 340/380 nm. […] As the control compound, GYKI52466 (Le Peillet, et al., Brain Res., 571, 115, 1992) was used.
row,SMILES,IC50
1,"COc1cccc(C2CC(c3ccccn3)=NN(c3ccccc3Br)C2=O)c1 (centres unmarked) [Example 1, 2-(2-Bromophenyl)-4-(3-methoxyphenyl)-6-(2-pyridyl)-4,5-dihydro-3 (2H)-pyridazinone]",100 nM
2,"O=C1C(c2cccc(O)c2)CC(c2ccccn2)=NN1c1ccccc1Br (centres unmarked) [Example 2, 2-(2-Bromophenyl)-4-(3-hydroxyphenyl)-6-(2-pyridyl)-4,5-dihydro-3 (2H)-pyridazinone]",100 nM
3,"O=c1c(-c2cccc(OCCO)c2)cc(-c2ccccn2)nn1-c1ccccc1Br [Example 3, 2-(2-Bromophenyl)-4-[3-(2-hydroxyethoxy)phenyl]-6-(2-pyridyl)-3 (2H)-pyridazinone]",200 nM
4,"N#Cc1ccccc1-n1nc(-c2ccccn2)cc(-c2cccc(OCCO)c2)c1=O [Example 4, 2-(2-Cyanophenyl)-4-[3-(2-hydroxyethoxy)phenyl]-6-(2-pyridyl)-3 (2H)-pyridazinone]",60 nM
5,"COc1ccccc1-c1cc(-c2ccccn2)c(=O)n(-c2ccccc2Br)n1 [Example 5, 2-(2-Bromophenyl)-6-(2-methoxyphenyl)-4-(2-pyridyl)-3 (2H)-pyridazinone]",6700 nM
6,"N#Cc1ccccc1N1N=C2c3ccccc3OCC2C(c2ccccc2)C1=O (centres unmarked) [Example 6, 2-(2-Cyanophenyl)-4-phenyl-2,3,4,4a-tetrahydro-5H-(1)benzopyrano[4,3-c]pyridazin-3-one]",100 nM
7,"N#Cc1ccccc1-n1nc2c(c(-c3ccccc3)c1=O)COc1ccccc1-2 [Example 7, 2-(2-Cyanophenyl)-4-phenyl-2,3-dihydro-5H-(1)benzopyrano[4,3-c]pyridazin-3-one]",200 nM
8,"O=C1C(c2cccnc2)C2COc3ccccc3C2=NN1c1ccccc1I (centres unmarked) [Example 8, 2-(2-Iodophenyl)-4-(3-pyridyl)-2,3,4,4a-tetrahydro-5H-(1)benzopyrano[4,3-c]pyridazin-3-one]",100 nM
9,"O=C1C(C(O)c2ccccn2)CC(c2ccccc2)=NN1c1ccccc1 (centres unmarked) [Example 11, 2,6-Diphenyl-4-(a-hydroxy-2-picolyl)-4,5-dihydro-3 (2H)-pyridazinone]",9900 nM
10,"N#Cc1ccccc1-n1nc(-c2ccccc2)cc(C(=O)NCCN2CCOCC2)c1=O [Example 12, 2-(2-Cyanophenyl)-4-(4-morpholinoethylaminocarbonyl)-6-phenyl-3 (2H)-pyridazinone]",3900 nM
11,"COc1ccccc1C1CC(c2ccccn2)=NN(c2ccccc2Br)C1=O (centres unmarked) [Example 14, 2-(2-Bromophenyl)-4-(2-methoxyphenyl)-6-(2-pyridyl)-4,5-dihydro-3 (2H)-pyridazinone]",200 nM
12,"COc1ccc(C2CC(c3ccccn3)=NN(c3ccccc3Br)C2=O)cc1 (centres unmarked) [Example 15, 2-(2-Bromophenyl)-4-(4-methoxyphenyl)-6-(2-pyridyl)-4,5-dihydro-3 (2H)-pyridazinone]",200 nM
13,"COc1ccc(Br)cc1C1CC(c2ccccn2)=NN(c2ccccc2Br)C1=O (centres unmarked) [Example 16, 2-(2-Bromophenyl)-4-(3-bromo-6-methoxyphenyl)-6-(2-pyridyl)-4,5-dihydro-3 (2H)-pyridazinone]",700 nM
14,"COc1ccccc1C1CC(c2ccccn2)=NN(c2ccccc2I)C1=O (centres unmarked) [Example 17, 2-(2-Iodophenyl)-4-(2-methoxyphenyl)-6-(2-pyridyl)-4,5-dihydro-3 (2H)-pyridazinone]",200 nM
15,"COc1ccccc1C1CC(c2ccccn2)=NN(c2ccccc2)C1=O (centres unmarked) [Example 18, 4-(2-Methoxyphenyl)-2-phenyl-6-(2-pyridyl)-4,5-dihydro-3 (2H)-pyridazinone]",100 nM
16,"O=C1C(c2ccccc2)CC(c2ccccn2)=NN1c1ccccc1Br (centres unmarked) [Example 19, 2-(2-Bromophenyl)-4-phenyl-6-(2-pyridyl)-4,5-dihydro-3 (2H)-pyridazinone]",60 nM
17,"O=C1C(c2ccccc2)CC(c2cccnc2)=NN1c1ccccc1Br (centres unmarked) [Example 20, 2-(2-Bromophenyl)-4-phenyl-6-(3-pyridyl)-4,5-dihydro-3 (2H)-pyridazinone]",100 nM

# Reference: patent US20030225081A1, “Pyridazinones and triazinones and medicinal use thereof” (priority 2000, published 2003)
